The values below come from patent US9550754B2, “4,5-dihydropyrazole derivatives, pharmaceutical compositions containing them, and their use in therapy” (ABBVIE DEUTSCHLAND GMBH & CO. KG, priority 2014, dated 2017).

This assay has as its target T1, human GlyT1c transporter (Homo sapiens, UniProt P48067).
T1 construct: expressed in transfected cells; host or cells: recombinant CHO cells (membranes); the line hGlyT1c_5_CHO is named only for the uptake assay
T1 sequence (P48067 1-706): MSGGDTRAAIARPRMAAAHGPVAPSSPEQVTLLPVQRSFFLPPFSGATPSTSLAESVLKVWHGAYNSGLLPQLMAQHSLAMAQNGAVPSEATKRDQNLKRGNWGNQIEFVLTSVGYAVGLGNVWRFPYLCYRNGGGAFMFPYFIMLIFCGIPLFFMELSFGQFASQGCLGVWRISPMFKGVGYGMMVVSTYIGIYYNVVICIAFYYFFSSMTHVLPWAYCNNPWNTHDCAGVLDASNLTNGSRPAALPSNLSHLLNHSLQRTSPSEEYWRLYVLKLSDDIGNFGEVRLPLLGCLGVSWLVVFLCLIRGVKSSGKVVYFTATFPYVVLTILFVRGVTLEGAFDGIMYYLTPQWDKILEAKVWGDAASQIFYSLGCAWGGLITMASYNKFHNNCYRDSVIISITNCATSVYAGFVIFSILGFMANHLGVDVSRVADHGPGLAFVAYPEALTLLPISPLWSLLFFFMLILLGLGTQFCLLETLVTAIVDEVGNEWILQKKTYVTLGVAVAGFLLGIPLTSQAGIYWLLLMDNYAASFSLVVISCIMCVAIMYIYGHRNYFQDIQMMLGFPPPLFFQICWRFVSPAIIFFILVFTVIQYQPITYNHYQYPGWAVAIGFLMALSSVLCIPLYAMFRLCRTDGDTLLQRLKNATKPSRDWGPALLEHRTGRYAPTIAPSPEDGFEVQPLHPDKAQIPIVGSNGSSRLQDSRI
Description: Radioligand binding assay using recombinant CHO cell membranes expressing human GlyT1. The settings on record: apparent Ki, read-out: Kiapp (Inhibition of GlyT1 radioligand binding). How it is done:
2. Radioligand Binding Assays Using Recombinant CHO Cell Membranes Expressing Human GlyT1:
Radioligand binding to human GlyT1c transporter-expressing membranes was carried out as described in Mezler et al., Molecular Pharmacology 74:1705-1715, 2008.

`Cn1cnc(S(=O)(=O)N2CC(c3ccccc3)C(c3ccc(Cl)cc3)=N2)c1` (single isomer, unassigned) [Example 16a, 3-(4-chlorophenyl)-1-[(1-methyl-1H-imidazol-4-yl)sulfonyl]-4-phenyl-4,5-dihydro-1H-pyrazole]: the Ki is at most 0.01 µM.

With `Cn1cnc(S(=O)(=O)N2CC(c3ccccc3)C(c3ccc(Cl)cc3)=N2)c1` (single isomer, unassigned) [Example 16b, 3-(4-chlorophenyl)-1-[(1-methyl-1H-imidazol-4-yl)sulfonyl]-4-phenyl-4,5-dihydro-1H-pyrazole], the Ki was at most 10 µM. The result for `Cn1cc(S(=O)(=O)N2CC(c3ccc(F)cc3)C(c3cccc(C(F)(F)F)c3)=N2)nn1` (stereo not shown) [Example 1, 4-({4-(4-fluorophenyl)-3-[3-(trifluoromethyl)phenyl]-4,5-dihydro-1H-pyrazol-1-yl}sulfonyl)-1-methyl-1H-1,2,3-triazole] reads at most 10 µM; that for `Cn1cnc(S(=O)(=O)N2CC(c3ccccc3)C(c3ccc(Cl)cc3)=N2)c1` (stereo not shown) [Example 2, 3-(4-chlorophenyl)-1-[(1-methyl-1H-imidazol-4-yl)sulfonyl]-4-phenyl-4,5-dihydro-1H-pyrazole], at most 0.1 µM; that for `Cn1cc(S(=O)(=O)N2CC(c3ccc(F)cc3)C(c3ccccc3)=N2)nn1` (stereo not shown) [Example 3, 4-{[4-(4-fluorophenyl)-3-phenyl-4,5-dihydro-1H-pyrazol-1-yl]sulfonyl}-1-methyl-1H-1,2,3-triazole], at most 0.1 µM.

For the compound `Cn1cnc(S(=O)(=O)N2CC(c3ccc(F)cc3)C(c3ccccc3)=N2)c1` (stereo not shown) [Example 4, 4-(4-fluorophenyl)-1-[(1-methyl-1H-imidazol-4-yl)sulfonyl]-3-phenyl-4,5-dihydro-1H-pyrazole], the Ki is at most 1 µM. The result for `Cn1cnc(S(=O)(=O)N2CC(c3ccc(F)cc3)C(c3cccc(Cl)c3)=N2)c1` (stereo not shown) [Example 5, 3-(3-chlorophenyl)-4-(4-fluorophenyl)-1-[(1-methyl-1H-imidazol-4-yl)sulfonyl]-4,5-dihydro-1H-pyrazole] reads at most 1 µM; that for `Cn1cc(S(=O)(=O)N2CC(c3ccc(F)cc3)C(c3cccc(Cl)c3)=N2)nn1` (stereo not shown) [Example 6, 4-{[3-(3-chlorophenyl)-4-(4-fluorophenyl)-4,5-dihydro-1H-pyrazol-1-yl]sulfonyl}-1-methyl-1H-1,2,3-triazole], at most 0.1 µM. For the compound `Cn1cc(S(=O)(=O)N2CC(c3ccc(F)cc3)C(c3cccc(Cl)c3)=N2)cn1` (stereo not shown) [Example 7, 4-{[3-(3-chlorophenyl)-4-(4-fluorophenyl)-4,5-dihydro-1H-pyrazol-1-yl]sulfonyl}-1-methyl-1H-pyrazole], the Ki is at most 0.01 µM. Turning to `Cn1cnc(S(=O)(=O)N2CC(c3ccc(F)cc3)C(c3cccc(C(F)(F)F)c3)=N2)c1` (stereo not shown) [Example 8, 4-(4-fluorophenyl)-1-[(1-methyl-1H-imidazol-4-yl)sulfonyl]-3-[3-(trifluoromethyl)phenyl]-4,5-dihydro-1H-pyrazole], the Ki was at most 0.1 µM. On to `Cn1cc(S(=O)(=O)N2CC(c3ccc(F)cc3)C(c3ccccc3)=N2)cn1` (stereo not shown) [Example 9, 4-{[4-(4-fluorophenyl)-3-phenyl-4,5-dihydro-1H-pyrazol-1-yl]sulfonyl}-1-methyl-1H-pyrazole], for which the Ki was at least 10 µM.

As to `Cn1cc(S(=O)(=O)N2CC(c3ccc(F)cc3)C(c3cccc(C(F)(F)F)c3)=N2)cn1` (stereo not shown) [Example 10, 4-({4-(4-fluorophenyl)-3-[3-(trifluoromethyl)phenyl]-4,5-dihydro-1H-pyrazol-1-yl}sulfonyl)-1-methyl-1H-pyrazole], the Ki was at most 10 µM. With `Cn1cc(S(=O)(=O)N2CC(c3ccccc3)C(c3ccc(Cl)cc3)=N2)cn1` (stereo not shown) [Example 11, 4-{[3-(4-chlorophenyl)-4-phenyl-4,5-dihydro-1H-pyrazol-1-yl]sulfonyl}-1-methyl-1H-pyrazole], the Ki was at most 10 µM. As for `Cn1cc(S(=O)(=O)N2CC(c3ccccc3)C(c3ccc(Cl)cc3)=N2)nn1` (stereo not shown) [Example 12, 4-{[3-(4-chlorophenyl)-4-phenyl-4,5-dihydro-1H-pyrazol-1-yl]sulfonyl}-1-methyl-1H-1,2,3-triazole], the Ki was at most 0.01 µM. With `Cn1cnc(S(=O)(=O)N2CC(c3ccccc3)C(c3cccc(OC(F)(F)F)c3)=N2)c1` (stereo not shown) [Example 13, 1-[(1-methyl-1H-imidazol-4-yl)sulfonyl]-4-phenyl-3-[3-(trifluoromethoxy)-phenyl]-4,5-dihydro-1H-pyrazole], the Ki is at most 0.1 µM. In the case of `Cn1cc(S(=O)(=O)N2CC(c3ccccc3)C(c3cccc(OC(F)(F)F)c3)=N2)cn1` (stereo not shown) [Example 14, 1-methyl-4-({4-phenyl-3-[3-(trifluoromethoxy)phenyl]-4,5-dihydro-1H-pyrazol-1-yl}sulfonyl)-1H-pyrazole], the Ki was at most 10 µM. Next, `Cn1cc(S(=O)(=O)N2CC(c3ccccc3)C(c3cccc(OC(F)(F)F)c3)=N2)nn1` (stereo not shown) [Example 15, 1-methyl-4-({4-phenyl-3-[3-(trifluoromethoxy)phenyl]-4,5-dihydro-1H-pyrazol-1-yl}sulfonyl)-1H-1,2,3-triazole]: at most 0.1 µM; `CC(C)CC1=NN(S(=O)(=O)c2cn(C)cn2)CC1c1ccccc1` (stereo not shown) [Example 17, 1-[(1-methyl-1H-imidazol-4-yl)sulfonyl]-3-(2-methylpropyl)-4-phenyl-4,5-dihydro-1H-pyrazole]: at most 10 µM; `Cn1cnc(S(=O)(=O)N2CC(c3ccccc3)C(c3ccccn3)=N2)c1` (stereo not shown) [Example 18, 2-{1-[(1-methyl-1H-imidazol-4-yl)sulfonyl]-4-phenyl-4,5-dihydro-1H-pyrazol-3-yl}pyridine]: at most 10 µM. With `Cn1cc(S(=O)(=O)N2CC(c3ccccc3)C(c3ccccn3)=N2)cn1` (stereo not shown) [Example 19, 2-{1-[(1-methyl-1H-pyrazol-4-yl)sulfonyl]-4-phenyl-4,5-dihydro-1H-pyrazol-3-yl}pyridine], the Ki was at least 10 µM. Regarding `Cn1cc(S(=O)(=O)N2CC(c3ccccc3)C(c3ccccn3)=N2)nn1` (stereo not shown) [Example 20, 2-{1-[(1-methyl-1H-1,2,3-triazol-4-yl)sulfonyl]-4-phenyl-4,5-dihydro-1H-pyrazol-3-yl}pyridine], the Ki was at most 10 µM.

On to `Cn1cnc(S(=O)(=O)N2CC(c3ccccc3)C(c3cc(C(F)(F)F)ccn3)=N2)c1` (stereo not shown) [Example 21, 2-{1-[(1-methyl-1H-imidazol-4-yl)sulfonyl]-4-phenyl-4,5-dihydro-1H-pyrazol-3-yl}-4-(trifluoromethyl)pyridine], for which the Ki was at most 10 µM. Next, `Cn1cc(S(=O)(=O)N2CC(c3ccccc3)C(c3cc(C(F)(F)F)ccn3)=N2)cn1` (stereo not shown) [Example 22, 2-{1-[(1-methyl-1H-pyrazol-4-yl)sulfonyl]-4-phenyl-4,5-dihydro-1H-pyrazol-3-yl}-4-(trifluoromethyl)pyridine]: at most 10 µM. Next, `Cn1cc(S(=O)(=O)N2CC(c3ccccc3)C(c3cc(C(F)(F)F)ccn3)=N2)nn1` (stereo not shown) [Example 23, 2-{1-[(1-methyl-1H-1,2,3-triazol-4-yl)sulfonyl]-4-phenyl-4,5-dihydro-1H-pyrazol-3-yl}-4-(trifluoromethyl)pyridine]: at most 10 µM; `Cn1cnc(S(=O)(=O)N2CC(c3ccc(Cl)cc3)C(c3ccccc3)=N2)c1` (stereo not shown) [Example 24, 4-(4-chlorophenyl)-1-[(1-methyl-1H-imidazol-4-yl)sulfonyl]-3-phenyl-4,5-dihydro-1H-pyrazole]: at most 1 µM; `Cn1cnc(S(=O)(=O)N2CC(c3cccc(C#N)c3)C(c3ccccc3)=N2)c1` (stereo not shown) [Example 25, 3-{1-[(1-methyl-1H-imidazol-4-yl)sulfonyl]-3-phenyl-4,5-dihydro-1H-pyrazol-4-yl}benzonitrile]: at most 10 µM. As to `Cn1cc(S(=O)(=O)N2CC(c3ccc(Cl)cc3)C(c3ccccc3)=N2)cn1` (stereo not shown) [Example 26, 4-{[4-(4-chlorophenyl)-3-phenyl-4,5-dihydro-1H-pyrazol-1-yl]sulfonyl}-1-methyl-1H-pyrazole], the Ki was at most 10 µM.

Turning to `Cn1cc(S(=O)(=O)N2CC(c3ccc(Cl)cc3)C(c3ccccc3)=N2)nn1` (stereo not shown) [Example 27, 4-{[4-(4-chlorophenyl)-3-phenyl-4,5-dihydro-1H-pyrazol-1-yl]sulfonyl}-1-methyl-1H-1,2,3-triazole], the Ki is at most 1 µM. The result for `Cn1cc(S(=O)(=O)N2CC(c3cccc(C#N)c3)C(c3ccccc3)=N2)nn1` (stereo not shown) [Example 28, 3-{1-[(1-methyl-1H-1,2,3-triazol-4-yl)sulfonyl]-3-phenyl-4,5-dihydro-1H-pyrazol-4-yl}benzonitrile] reads at most 1 µM. In the case of `Cn1cc(S(=O)(=O)N2CC(c3cccc(Cl)c3)C(c3ccccc3)=N2)cn1` (stereo not shown) [Example 29, 4-{[4-(3-chlorophenyl)-3-phenyl-4,5-dihydro-1H-pyrazol-1-yl]sulfonyl}-1-methyl-1H-pyrazole], the Ki is at most 10 µM.

With `Cn1cnc(S(=O)(=O)N2CC(c3cccc(Cl)c3)C(c3ccccc3)=N2)c1` (stereo not shown) [Example 30, 4-(3-chlorophenyl)-1-[(1-methyl-1H-imidazol-4-yl)sulfonyl]-3-phenyl-4,5-dihydro-1H-pyrazole], the Ki is at most 0.1 µM.
